Assay results reported in ChEMBL document CHEMBL1129277, “Nonpeptidal P2 ligands for HIV protease inhibitors: structure-based design, synthesis, and biological evaluation” (J Med Chem, 1996).
≈ marks a conversion by molar mass, not a printed value.

How the values were obtained:
[1] = Aqueous solubility in phosphate buffer of pH 7.4; format: physicochemical
[2] = tested on: Human immunodeficiency virus 1; experiment: Inhibition of HIV-1 replication in infected MT-4 human T-lymphoid cells.; format: functional, organism-based; settings: Human immunodeficiency virus 1, T-lymphoid
[3] = biological target: Human immunodeficiency virus type 1 protease (Human immunodeficiency virus 1) (UniProt Q72874); experiment: Inhibitory activity against HIV-1 protease enzyme

## CC(C)(C)NC(=O)[C@@H]1C[C@@H]2CCCC[C@@H]2CN1C[C@@H](O)[C@H](Cc1ccccc1)NC(=O)O[C@H]1CCOC1
[1]
  solubility: 150 µg/mL (≈ 291 µM)
[2]
  IC50: 132 nM

## CC(C)(C)NC(=O)[C@@H]1C[C@@H]2CCCC[C@@H]2CN1C[C@@H](O)[C@H](Cc1ccccc1)NC(=O)O[C@]12CCO[C@H]1OCC2
[3]
  IC95: > 200 nM
[2]
  IC50: 410 nM

## COC[C@H]1[C@@H](OC(=O)N[C@@H](Cc2ccccc2)[C@H](O)CN2C[C@H]3CCCC[C@H]3C[C@H]2C(=O)NC(C)(C)C)CCS1(=O)=O
[2]
  IC50: 23.8 nM

## CC(C)(C)NC(=O)[C@@H]1C[C@@H]2CCCC[C@@H]2CN1C[C@@H](O)[C@H](Cc1ccccc1)NC(=O)[C@H](CC(N)=O)NC(=O)c1ccc2ccccc2n1 [SAQUINAVIR]
[1]
  solubility: 10 µg/mL (≈ 14.9 µM)

## C[C@@H]1C[C@@H]2[C@@H](OC[C@@H]2OC(=O)N[C@@H](Cc2ccccc2)[C@H](O)CN2C[C@H]3CCCC[C@H]3C[C@H]2C(=O)NC(C)(C)C)O1
[3]
  IC95: 200 nM
[2]
  IC50: 4.1 nM

## CC(C)(C)NC(=O)[C@@H]1C[C@@H]2CCCC[C@@H]2CN1C[C@@H](O)[C@H](Cc1ccccc1)NC(=O)O[C@@H]1CO[C@@H]2OCC[C@@H]21
[1]
  solubility: 130 µg/mL (≈ 233 µM)
[2]
  IC50: 6.4 nM

## CC(C)(C)NC(=O)[C@@H]1C[C@@H]2CCCC[C@@H]2CN1C[C@@H](O)[C@H](Cc1ccccc1)NC(=O)O[C@H]1CCSC1
[2]
  IC50: 132 nM

## CC(C)(C)NC(=O)[C@@H]1C[C@@H]2CCCC[C@@H]2CN1C[C@@H](O)[C@H](Cc1ccccc1)NC(=O)O[C@H]1CO[C@@]2(C)OCC[C@@H]12
[3]
  IC95: > 200 nM
[2]
  IC50: 18.1 nM

## CC(C)(C)NC(=O)[C@@H]1C[C@@H]2CCCC[C@@H]2CN1C[C@@H](O)[C@H](Cc1ccccc1)NC(=O)O[C@@H]1CO[C@@H]2CCO[C@@H]21
[3]
  IC95: > 200 nM
[2]
  IC50: > 3000 nM

## CC(C)(C)NC(=O)[C@@H]1C[C@@H]2CCCC[C@@H]2CN1C[C@@H](O)[C@H](Cc1ccccc1)NC(=O)O[C@@H]1CO[C@@H]2OCCC[C@@H]21
[1]
  solubility: 107 µg/mL (≈ 187 µM)
[3]
  IC95: 50 nM
[2]
  IC50: 1.2 nM

## CC(C)(C)NC(=O)[C@@H]1C[C@@H]2CCCC[C@@H]2CN1C[C@@H](O)[C@H](Cc1ccccc1)NC(=O)O[C@H]1CC[C@H]2OCC[C@@H]12
[2]
  IC50: 17 nM

## CC(C)(C)NC(=O)[C@@H]1C[C@@H]2CCCC[C@@H]2CN1C[C@@H](O)[C@H](Cc1ccccc1)NC(=O)O[C@@H]1CCOC1
[3]
  IC95: > 800 nM
[2]
  IC50: 694 nM

## CC(C)(C)NC(=O)[C@@H]1C[C@@H]2CCCC[C@@H]2CN1C[C@@H](O)[C@H](Cc1ccccc1)NC(=O)O[C@H]1CO[C@H]2CCC[C@H]21
[2]
  IC50: 190 nM

## CC(C)(C)NC(=O)[C@@H]1C[C@@H]2CCCC[C@@H]2CN1C[C@@H](O)[C@H](Cc1ccccc1)NC(=O)O[C@H]1CO[C@H]2COC[C@H]21
[2]
  IC50: 1700 nM

## CC(C)(C)NC(=O)[C@@H]1C[C@@H]2CCCC[C@@H]2CN1C[C@@H](O)[C@H](Cc1ccccc1)NC(=O)O[C@H]1CCS(=O)(=O)C1
[3]
  IC95: 364 nM
[2]
  IC50: 76 nM

## C[C@H]1C[C@@H]2[C@@H](OC[C@@H]2OC(=O)N[C@@H](Cc2ccccc2)[C@H](O)CN2C[C@H]3CCCC[C@H]3C[C@H]2C(=O)NC(C)(C)C)O1
[3]
  IC95: 200 nM
[2]
  IC50: 27.1 nM

## COC[C@@H]1SCC[C@@H]1OC(=O)N[C@@H](Cc1ccccc1)[C@H](O)CN1C[C@H]2CCCC[C@H]2C[C@H]1C(=O)NC(C)(C)C
[2]
  IC50: 19.7 nM

## CC(C)(C)NC(=O)[C@@H]1C[C@@H]2CCCC[C@@H]2CN1C[C@@H](O)[C@H](Cc1ccccc1)NC(=O)O[C@H]1CO[C@H]2OCCC[C@H]21
[3]
  IC95: 100 nM
[2]
  IC50: 4.2 nM

## CC(C)(C)NC(=O)[C@@H]1C[C@@H]2CCCC[C@@H]2CN1C[C@@H](O)[C@H](Cc1ccccc1)NC(=O)O[C@H]1CO[C@H]2OCC[C@H]21
[1]
  solubility: 235 µg/mL (≈ 421 µM)
[2]
  IC50: 1.8 nM
